# The supplement of paper PMC7017272
# ± gives the standard deviation of the averaged measurements.
# Key:
# [1] = test system: UT-SCC-24A; experiment: maximal % inhibition of viability relative to DMSO; higher = stronger effect; conditions: treatment time: 3 days
# Procedure: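 HNSCC cell lines (500 cells/well, 384-well) were cultured on plastic, on top of (2D) or embedded (3D) in Matrigel or human leiomyoma matrix Myogel (500 ug/mL; Myogel 3D mixed with rat collagen I). Cells were treated for 3 days with 5 ten-fold concentrations of each drug, and viability was read by CellTiter-Glo. Viability was normalised to DMSO (0% inhibition) and 100 uM benzethonium chloride (100% inhibition) controls and fitted with the FIMM DSRT pipeline to give IC50 (nM), maximal % inhibition and the drug sensitivity score (DSS). Suffixes _1/_2/_3 on drug names are replicates.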
# [2] = test system: UT-SCC-106A; experiment: drug sensitivity score (DSS); higher = more sensitive; extreme values may be limits of the assay; conditions: treatment time: 3 days
# Method in brief: (§1)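 Using 384-well plates, 500 cells/well of HPV-negative HNSCC cell lines were grown on plastic, on 500 µg/mL Matrigel or Myogel coatings, or embedded in Matrigel or Myogel with rat collagen I. They were treated with compounds at five 10-fold concentrations for 3 days, and luminescence from CellTiter-Glo 2.0 was normalised to vehicle (0.1% DMSO) and cell-killing control wells. IC50, maximal inhibition and drug sensitivity score were derived from percent-inhibition dose–response curves in the FIMM pipeline.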
# [3] = test system: UT-SCC-14; experiment: as above; conditions: treatment time: 3 days
# Method in brief: as §1
# [4] = test system: UT-SCC-24B; experiment: as above; conditions: treatment time: 3 days
# Method in brief: as §1
# [5] = test system: UT-SCC-28; experiment: as above; conditions: treatment time: 3 days
# Method in brief: as §1
# [6] = test system: UT-SCC-40; experiment: as above; conditions: treatment time: 3 days
# Method in brief: as §1
# [7] = test system: UT-SCC-42A; experiment: as above; conditions: treatment time: 3 days
# Method in brief: as §1
# [8] = test system: UT-SCC-42B; experiment: as above; conditions: treatment time: 3 days
# Method in brief: as §1
# [9] = test system: UT-SCC-44; experiment: as above; conditions: treatment time: 3 days
# Method in brief: as §1
# [10] = test system: UT-SCC-73; experiment: as above; conditions: culture condition: embedded in Matrigel; treatment time: 3 days
# Method in brief: as §1
# [11] = culture condition: embedded in Matrigel
# [12] = culture condition: embedded in Myogel + collagen I
# [13] = culture condition: on top of Matrigel
# [14] = culture condition: on top of Myogel
# [15] = culture condition: plastic 2D (no matrix)
structure (smiles),measurement,setting,value
COc1cc(F)c(F)c(Nc2ccc(I)cc2F)c1NS(=O)(=O)C1(C[C@H](O)CO)CC1 [Refametinib],maximal % inhibition of viability,[1]; [11],84.4 ± 1.8%
same,maximal % inhibition of viability,[1]; [12],73.9 ± 0.81%
same,maximal % inhibition of viability,[1]; [13],80.4 ± 2.4%
same,maximal % inhibition of viability,[1]; [14],59.7 ± 7.4%
same,maximal % inhibition of viability,[1]; [15],75.4 ± 3.4%
same,drug sensitivity score,[2]; [11],17.8 ± 1.8 DSS
same,drug sensitivity score,[2]; [12],3.97 ± 0.67 DSS
same,drug sensitivity score,[2]; [13],21.6 ± 1.2 DSS
same,drug sensitivity score,[2]; [14],5.3 ± 0.82 DSS
same,drug sensitivity score,[2]; [15],20.4 ± 0.42 DSS
same,drug sensitivity score,[3]; [11],13.5 ± 4.8 DSS
same,drug sensitivity score,[3]; [12],9.87 ± 1.7 DSS
same,drug sensitivity score,[3]; [13],10.9 ± 3.1 DSS
same,drug sensitivity score,[3]; [14],8.53 ± 0.47 DSS
same,drug sensitivity score,[3]; [15],5.8 ± 2.8 DSS
same,drug sensitivity score,[4]; [11],12.4 ± 0.7 DSS
same,drug sensitivity score,[4]; [12],10.4 ± 1.8 DSS
same,drug sensitivity score,[4]; [13],11.8 ± 0.98 DSS
same,drug sensitivity score,[4]; [14],6.87 ± 1 DSS
same,drug sensitivity score,[4]; [15],16.4 ± 2.1 DSS
same,drug sensitivity score,[5]; [11],9.8 ± 1.8 DSS
same,drug sensitivity score,[5]; [12],4.67 ± 4.2 DSS
same,drug sensitivity score,[5]; [13],13.2 ± 2.8 DSS
same,drug sensitivity score,[5]; [15],4.4 ± 2.4 DSS
same,drug sensitivity score,[6]; [11],26.9 ± 1.2 DSS
same,drug sensitivity score,[6]; [12],16.8 ± 2 DSS
same,drug sensitivity score,[6]; [13],22.5 ± 1.8 DSS
same,drug sensitivity score,[6]; [14],14.3 ± 1.1 DSS
same,drug sensitivity score,[6]; [15],14.1 ± 1.1 DSS
same,drug sensitivity score,[7]; [11],18 ± 1.1 DSS
same,drug sensitivity score,[7]; [12],8.7 ± 1.7 DSS
same,drug sensitivity score,[7]; [13],19.2 ± 0.8 DSS
same,drug sensitivity score,[7]; [14],11.5 ± 1.4 DSS
same,drug sensitivity score,[7]; [15],15.3 ± 0.1 DSS
same,drug sensitivity score,[8]; [11],25.5 ± 1.9 DSS
same,drug sensitivity score,[8]; [13],15.7 ± 1.7 DSS
same,drug sensitivity score,[8]; [14],5.27 ± 0.5 DSS
same,drug sensitivity score,[8]; [15],8.27 ± 1.1 DSS
same,drug sensitivity score,[9]; [11],23.7 ± 1.5 DSS
same,drug sensitivity score,[9]; [12],8.1 ± 2.3 DSS
same,drug sensitivity score,[9]; [13],18.2 ± 2.5 DSS
same,drug sensitivity score,[9]; [14],7.4 ± 1.2 DSS
same,drug sensitivity score,[9]; [15],15.3 ± 0.64 DSS
same,drug sensitivity score,[10],25 ± 1.3 DSS
